Data as given in the supplement of paper PMC11061612.

How the values were obtained:
[1] = compound: CCc1c2c(nc3ccc(O)cc13)-c1cc3c(c(=O)n1C2)COC(=O)[C@]3(O)CC [SN-38]; settings: max 0.3 µM
Outline: (§1)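 Cancer cell lines in 1536-well plates (7.5 μl DMEM/F12 or RPMI, 10% FBS) were held 24 hours at 37°C and 5% CO2 and then dosed for 72 hours at a final DMSO of typically 0.2%. Viability was taken from CellTiter-Glo 2.0 luminescence, scaled between blank-well and DMSO-well means. Curves were fitted as two-parameter logistic models with a non-linear mixed effects model, from which the single-agent IC50 was taken.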

[2] = compound: CCN(CCO)CCCOc1ccc2c(Nc3cc(CC(=O)Nc4cccc(F)c4)[nH]n3)ncnc2c1 [AZD2811]; settings: max 1 µM
Outline: as §1

[3] = compound: CN(C)CCCOc1ccc(-c2ccc3ncc4c(c3c2)n(C2CCOCC2)c(=O)n4C)cn1 [AZD0156]; settings: max 3 µM
Outline: as §1

[4] = compound: Cc1cc2ncnn2cc1Nc1ncc2c(n1)n(C1CCOCC1)c(=O)n2C [AZD7648]; settings: max 10 µM
Outline: as §1

[5] = compound: COc1cc2ncnc(Nc3ccc(F)c(Cl)c3)c2cc1OCCCN1CCOCC1 [Gefitinib]; settings: max 10 µM
Outline: as §1

[6] = compound: C[C@@H](Nc1cc(F)cc(F)c1)c1cc(C(=O)N(C)C)cc2c(=O)cc(N3CCOCC3)oc12 [AZD8186]; settings: max 3 µM
Outline: as §1

[7] = compound: CC(=O)c1c(C)c2cnc(Nc3ccc(N4CCNCC4)cn3)nc2n(C2CCCC2)c1=O [Palbociclib]; settings: max 10 µM
Outline: as §1

[8] = compound: CC(=O)Nc1cccc(-n2c(=O)n(C3CC3)c(=O)c3c(Nc4ccc(I)cc4F)n(C)c(=O)c(C)c32)c1 [Trametinib]; settings: max 1 µM
Outline: as §1

[9] = compound: C[C@@H](Oc1cc(-c2cnn(C3CCNCC3)c2)cnc1N)c1c(Cl)ccc(F)c1Cl [Crizotinib]; settings: max 10 µM
Outline: as §1

[10] = compound: Cc1c2c(nn1C)CSCc1cc(n(C)n1)CSc1cc(c3ccccc3c1)OCCCc1c(C(=O)O)n(C)c3c-2c(Cl)ccc13 [AZD5991]; settings: max 1 µM
Outline: as §1

[11] = compound: C[C@@H](c1ccc2nccn2c1)n1nnc2ncc(-c3cnn(C)c3)nc21 [Savolitinib]; settings: max 1 µM
Outline: as §1

[12] = compound: O=C(c1cc(Cc2n[nH]c(=O)c3ccccc23)ccc1F)N1CCN(C(=O)C2CC2)CC1 [Olaparib]; settings: max 10 µM
Outline: as §1

[13] = compound: C=CCn1c(=O)c2cnc(Nc3ccc(N4CCN(C)CC4)cc3)nc2n1-c1cccc(C(C)(C)O)n1 [AZD1775]; settings: max 3 µM
Outline: as §1

[14] = compound: COc1nnc2ccc(N3CCC(c4ccc(OCCN5CCN(C)C(=O)[C@H]5C)cc4)CC3)nn12 [AZD5153]; settings: max 1 µM
Outline: as §1

[15] = compound: CN(CC[C@H](CSC1=CC=CC=C1)NC2=C(C=C(C=C2)S(=O)(=O)NC(=O)C3=CC=C(C=C3)N4CCC(CC4)[C@H](C5=CC=CC=C5C6=CC=C(C=C6)Cl)O)S(=O)(=O)C(F)(F)F)CCO [AZD4320]; settings: max 1 µM
Outline: as §1

[16] = compound: CC1(C)CCC(CN2CCN(c3ccc(C(=O)NS(=O)(=O)c4ccc(NCC5CCOCC5)c([N+](=O)[O-])c4)c(Oc4cnc5[nH]ccc5c4)c3)CC2)=C(c2ccc(Cl)cc2)C1 [Venetoclax]; settings: max 1 µM
Outline: as §1

[17] = compound: CS(=O)(=O)CCNCc1ccc(-c2ccc3ncnc(Nc4ccc(OCc5cccc(F)c5)c(Cl)c4)c3c2)o1 [Lapatinib]; settings: max 10 µM
Outline: as §1

[18] = compound: C[C@@H]1COCCN1C2=NC(=NC(=C2)C3(CC3)[S@](=N)(=O)C)C4=C5C=CNC5=NC=C4 [AZD6738]; settings: max 10 µM
Outline: as §1

[19] = compound: COc1cccc2c1C(=O)c1c(O)c3c(c(O)c1C2=O)C[C@@](O)(C(=O)CO)C[C@@H]3O[C@H]1C[C@H](N)[C@H](O)[C@H](C)O1 [Doxorubicin]; settings: max 1 µM
Outline: as §1

[20] = compound: CC(C)n1c(=O)n(C)c2cnc3cc(F)c(-c4ccc(OCCCN5CCCCC5)nc4)cc3c21 [AZD1390]; settings: max 0.3 µM
Outline: as §1

[21] = compound: CC1=CN2[C@@H](C1)C=NC3=CC(=C(C=C3C2=O)OC)OCCCCCOC4=C(C=C5C(=C4)N=C[C@@H]6CC(=CN6C5=O)C)OC [SG3199]; settings: max 0.001 µM
Outline: as §1

[22] = compound: CC1=C(C(=CC=C1)Cl)NC(=O)C2=CN=C(S2)NC3=CC(=NC(=N3)C)N4CCN(CC4)CCO [Dasatinib]; settings: max 2 µM
Outline: as §1

[23] = compound: Cc1nc(-c2cn3c(n2)-c2ccc(-c4cnn(C(C)(C)C(N)=O)c4)cc2OCC3)n(C(C)C)n1 [Taselisib]; settings: max 10 µM
Outline: as §1

[24] = compound: C1CN(CCC1(C(=O)N[C@@H](CCO)C2=CC=C(C=C2)Cl)N)C3=NC=NC4=C3C=CN4 [Capivasertib]; settings: max 10 µM
Outline: as §1

[25] = compound: COc1cc(Nc2ncc3c(n2)-c2ccc(Cl)cc2C(c2c(F)cccc2OC)=NC3)ccc1C(=O)O [Alisertib]; settings: max 10 µM
Outline: as §1

[26] = compound: COc1cccc(OCCCN)c1-c1cc(Nc2cnc(C#N)cn2)n[nH]1 [Prexasertib]; settings: max 1 µM
Outline: as §1

[27] = compound: Cn1cnc2c(F)c(Nc3ccc(Br)cc3Cl)c(C(=O)NOCCO)cc21 [Selumetinib]; settings: max 10 µM
Outline: as §1

| Cell Line | IC50, cell viability 72 h [1] [nM] | IC50, cell viability 72 h [2] [nM] | IC50, cell viability 72 h [3] [nM] | IC50, cell viability 72 h [4] [nM] | IC50, cell viability 72 h [5] [nM] | IC50, cell viability 72 h [6] [nM] | IC50, cell viability 72 h [7] [nM] | IC50, cell viability 72 h [8] [nM] | IC50, cell viability 72 h [9] [nM] | IC50, cell viability 72 h [10] [nM] | IC50, cell viability 72 h [11] [nM] | IC50, cell viability 72 h [12] [nM] | IC50, cell viability 72 h [13] [nM] | IC50, cell viability 72 h [14] [nM] | IC50, cell viability 72 h [15] [nM] | IC50, cell viability 72 h [16] [nM] | IC50, cell viability 72 h [17] [nM] | IC50, cell viability 72 h [18] [nM] | IC50, cell viability 72 h [19] [nM] | IC50, cell viability 72 h [20] [nM] | IC50, cell viability 72 h [21] [nM] | IC50, cell viability 72 h [22] [nM] | IC50, cell viability 72 h [23] [nM] | IC50, cell viability 72 h [24] [nM] | IC50, cell viability 72 h [25] [nM] | IC50, cell viability 72 h [26] [nM] | IC50, cell viability 72 h [27] [nM] |
| --- | --- | --- | --- | --- | --- | --- | --- | --- | --- | --- | --- | --- | --- | --- | --- | --- | --- | --- | --- | --- | --- | --- | --- | --- | --- | --- | --- |
| CHP-212 (Neuroblastoma) | 17.5 | 169 | > 3000 | > 10000 | > 10000 | > 3000 | 3360 | < 1 | 2070 | 257 | > 1000 | > 10000 | 221 | 59.2 | > 1000 | > 1000 | > 10000 | 1830 | 254 | > 300 | > 1 | 59.6 | 1080 | > 10000 | 64.3 | 51.5 | 12 |
| COLO-678 (Colorectal Carcinoma) | > 300 | > 1000 | > 3000 | > 10000 | > 10000 | > 3000 | > 10000 | 264 | > 10000 | > 1000 | > 1000 | > 10000 | > 3000 | > 1000 | > 1000 | > 1000 | > 10000 | > 10000 | > 1000 | > 300 | > 1 | > 2000 | > 10000 | > 10000 | > 10000 | > 1000 | 3440 |
| DiFi (Colorectal Carcinoma) | 33.3 | 595 | > 3000 | > 10000 | 52.4 | > 3000 | > 10000 | 42.8 | > 10000 | > 1000 | > 1000 | > 10000 | 1420 | 403 | > 1000 | > 1000 | 315 | 3530 | 961 | > 300 | > 1 | > 2000 | 606 | > 10000 | 5960 | 16.7 | 7260 |
| EVSA-T (Breast Carcinoma) | > 300 | > 1000 | > 3000 | > 10000 | > 10000 | 199 | > 10000 | > 1000 | 3360 | 56.1 | > 1000 | > 10000 | > 3000 | 65.2 | > 1000 | > 1000 | 4490 | > 10000 | > 1000 | > 300 | > 1 | > 2000 | 1050 | 289 | 6350 | > 1000 | > 10000 |
| HDQ-P1 (Breast Carcinoma) | 95.8 | > 1000 | > 3000 | > 10000 | > 10000 | > 3000 | > 10000 | > 1000 | > 10000 | > 1000 | > 1000 | > 10000 | 565 | > 1000 | > 1000 | > 1000 | > 10000 | > 10000 | > 1000 | > 300 | > 1 | 103 | 4570 | > 10000 | > 10000 | 530 | > 10000 |
| HL-60 (Acute Myeloid Leukemia) | 6.04 | 30.6 | > 3000 | > 10000 | > 10000 | > 3000 | > 10000 | 12.4 | 5820 | 35.7 | > 1000 | > 10000 | 1670 | 37 | 32.7 | 80.3 | > 10000 | 7320 | 159 | > 300 | > 1 | > 2000 | > 10000 | > 10000 | 407 | 16.6 | 642 |
| KARPAS-45 (T-Lymphoblastic Leukemia) | > 300 | 6.87 | > 3000 | > 10000 | 9060 | > 3000 | 624 | > 1000 | 1170 | 93.1 | > 1000 | > 10000 | 243 | 25.1 | 52.1 | > 1000 | 4370 | 3140 | > 1000 | > 300 | > 1 | 937 | 1450 | 3210 | 86.3 | 33.6 | > 10000 |
| KCL-22 (Chronic Myelogenous Leukemia) | 37.9 | > 1000 | > 3000 | > 10000 | > 10000 | > 3000 | > 10000 | 915 | 2010 | 369 | > 1000 | > 10000 | 525 | 273 | > 1000 | > 1000 | > 10000 | 927 | 335 | > 300 | > 1 | < 2 | > 10000 | > 10000 | 8160 | 13.8 | > 10000 |
